Test results published in the NIST ThermoML archive (doi:10.1021/je400077c).

What was measured:
[1] = wn = mass fraction of the nth substance listed; conditions: 298.15 K, 101 kPa, Liquid; for viscosity: Capillary tube (Ostwald / Ubbelohde) method; for speed of sound: Linear variable-path acoustic interferometer; for mass density: Vibrating tube method
[2] = refractive index (Na D-line) (dimensionless); wn = mass fraction of the nth substance listed; conditions: 298.15 K, 101 kPa, Liquid, Standard Abbe refractometry

[Ba+2].[Cl-].[Cl-] [barium chloride] + O
Conditions | mass density, [1] [kg/m3] | refractive index, [2] | speed of sound, [1] [m/s] | viscosity, [1] [mPa·s]
w1 = 0.01 | 997.56 | 1.333 | 1516.7 | 0.909
w1 = 0.03 | 998.66 | 1.3337 | 1521.4 | 0.915
w1 = 0.05 | 999.74 | 1.3345 | 1525.3 | 0.921
